The test system of data set [1] is Common Cutworm (Spodoptera litura). The data set is described as follows: whole plant or invertebrate. The settings on record: for Mortality (%): 5th or 6th day. How it is done:
They were diluted to a predetermined concentration with water containing a spreader (Shin-Rinoh 0.040) and subjected to the test by themselves or as a mixed liquid.
A leaf segment of cabbage was dipped for about 10 seconds in an insecticidal solution and dried in air. A wet filter paper was laid in a petri dish having a diameter of 9 cm, and the dried leaf segment of cabbage was placed thereon. 10 Second-instar larvae of common cutworm were released therein and after putting a cover, left in a constant temperature chamber at 25° C. with lightening. On the 5th or 6th day after release, dead larvae were counted, and the mortality was calculated by the following equation. Here, the insects that were moribund were counted as dead insects. Mortality (%)={(number of dead insects)/(number of surviving insects+number of dead insects)}×100
Further, the theoretical mortality (%) can be calculated from the colby's formula.

The subject of data set [2] is Green Peach Aphid (Myzus persicae). The data set is described as follows: Test on Controlling Effects Against Green Peach Aphid (radish leaf dip). The settings on record: third day after the dipping; for mortality at 0.05 ppm: other pesticide alone 0.05 ppm; for mortality at 100 ppm: other pesticide alone 100 ppm; for mortality at 200 ppm: other pesticide alone 200 ppm. Format: in vivo. How it is done:
Japanese radish leaf (cut into about 2 cm×3 cm) was put in a test tube in which water was put, and Larvae of green peach aphid were released on the leaf. […] On the third day after the dipping, dead larvae were counted, and the mortality was calculated from the following equation. Aphids that dropped from leaf or were moribund were included in the number of dead. […] Mortality (%)=(number of dead insects/number of treated insects)×100

Data set [3] deals with Green Rice Leafhopper (Nephotettix cincticeps). The data set is described as follows: Test on Controlling Effects Against Green Rice Leafhopper (rice seedling dip). The format is in vivo. The source says:
The root was wrapped with absorbent cotton wet with water, and the rice seedling was put in a test tube.

[4] abbreviates: Spodoptera litura, in Brassica oleracea, foliar.

Consider `Cc1c(COC(=O)[C@@H]2[C@H](/C=C(\Cl)C(F)(F)F)C2(C)C)cccc1-c1ccccc1` (racemic) [Bifenthrin, bifenthrin], for which, in data set [1] (setting [4]), the mortality at 0.4 ppm was found to be 0% and the mortality at 0.8 ppm came out at 40%. The same compound yielded a mortality at 0.025 ppm in data set [2] (Myzus persicae, foliar, other pesticide alone 0.025 ppm) of 0%. This compound came in with a mortality at 0.05 ppm in data set [2] (Myzus persicae, foliar) of 4%.
In data set [1] (setting [4]), `CCCCCCCCCCCCC1=C(OC(C)=O)C(=O)c2ccccc2C1=O` [Acequinocyl, acequinocyl] gave a mortality at 37.5 ppm of 0%, a mortality at 75 ppm of 0% and a mortality at 150 ppm of 0%.
In the case of `C/C(=N\C#N)N(C)Cc1ccc(Cl)nc1` [Acetamiprid, acetamiprid], in data set [1] (setting [4]), the mortality at 12.5 ppm is 0% and the mortality at 25 ppm came out at 10%.
`Cc1ccc(/N=C/N(C)/C=N/c2ccc(C)cc2C)c(C)c1` [Amitraz, amitraz] returned a mortality at 62.5 ppm in data set [1] (setting [4]) of 0%.
Regarding `C/C=C(\C)C(=O)O[C@H]1C[C@@H](OC(C)=O)[C@@]2(C(=O)OC)CO[C@H]3[C@@H](O)[C@@](C)([C@]45O[C@@]4(C)[C@H]4C[C@@H]5O[C@@H]5OC=C[C@@]54O)[C@H]4[C@]1(CO[C@]4(O)C(=O)OC)[C@@H]32` [Azadirachtin, azadirachtin], the mortality at 3.1 ppm in data set [1] (setting [4]) was determined as 0%. The compound also yielded a mortality at 6.2 ppm in data set [2] (Myzus persicae, foliar, other pesticide alone 6.2 ppm) of 0%. Besides, the mortality at 12.5 ppm in data set [2] (Myzus persicae, foliar, other pesticide alone 12.5 ppm) came out at 88%.
Regarding `CO/C=C(/C(=O)OC)c1ccccc1Oc1cc(Oc2ccccc2C#N)ncn1` [Azoxystrobin, azoxystrobin], in data set [3] (other pesticide alone 25 ppm, 5th or 6th day), the “Mortality (%)” value is 30%.
Consider `CCC1(C(=O)N[C@H](C)c2ccc(Cl)cc2)C(C)C1(Cl)Cl` (some centres unmarked) [Carpropamid, carpropamid], for which, in data set [2] (Myzus persicae, foliar), the mortality at 100 ppm worked out at 82% and the mortality at 200 ppm is 93%.
For the compound `CCOCn1c(-c2ccc(Cl)cc2)c(C#N)c(Br)c1C(F)(F)F` [Chlorfenapyr, chlorfenapyr], the mortality at 0.4 ppm in data set [1] (setting [4]) amounted to 20%.
In data set [1] (setting [4]), `O=C(NC(=O)c1c(F)cccc1F)Nc1cc(Cl)c(Oc2ncc(C(F)(F)F)cc2Cl)c(Cl)c1` [Chlorfluazuron, chlorfluazuron] showed a mortality at 0.0025 ppm of 0%, a mortality at 0.005 ppm of 0% and a mortality at 0.01 ppm of 0%.
In the case of `CN/C(=N\[N+](=O)[O-])NCc1cnc(Cl)s1` [Clothianidin, clothianidin], the mortality at 12.5 ppm in data set [1] (setting [4]) turned out to be 90%.
In data set [1] (setting [4]), `Nc1nc(N)nc(NC2CC2)n1` [Cyromazine, cyromazine] yielded a mortality at 25 ppm of 30% and a mortality at 50 ppm of 60%.
`CC1(C)[C@H](C(=O)O[C@H](C#N)c2cccc(Oc3ccccc3)c2)[C@@H]1C=C(Br)Br` [Deltamethrin, deltamethrin] showed a mortality at 0.4 ppm in data set [1] (setting [4]) of 30%.
In data set [2] (Myzus persicae, foliar), `Cc1c(Cl)cc(-c2ccc(=O)[nH]n2)cc1Cl` [Diclomezine, diclomezine] registered a mortality at 100 ppm of 0% and a mortality at 200 ppm of 0%.
On to `CN/C(=N/CC1CCOC1)N[N+](=O)[O-]` (centres unmarked) [Dinotefuran, dinotefuran], for which, in data set [1] (setting [4]), the mortality at 3.1 ppm was determined as 0%, the mortality at 6.2 ppm is 0% and the mortality at 12.5 ppm worked out at 13%.
As to `N#Cc1nn(-c2c(Cl)cc(C(F)(F)F)cc2Cl)c(N)c1[S+]([O-])C(F)(F)F` (centres unmarked) [Fipronil, fipronil], in data set [1] (setting [4]), the mortality at 0.4 ppm was 10% and the mortality at 0.8 ppm was 60%.
Take `N#CCNC(=O)c1cnccc1C(F)(F)F` [Flonicamid, flonicamid]: the “Mortality (%)” value in data set [1] (other pesticide alone 25 ppm) was determined as 0%; in data set [1] (other pesticide alone 50 ppm), 30%; in data set [1] (other pesticide alone 100 ppm), 0%; in data set [2] (other pesticide alone 0.8 ppm), 38%; in data set [2] (other pesticide alone 1.5 ppm), 70%.
In data set [1] (setting [4]), `O=C(NC(=O)c1c(F)cccc1F)Nc1ccc(Oc2ccc(C(F)(F)F)cc2Cl)cc1F` [Flufenoxuron, flufenoxuron] gave a mortality at 0.01 ppm of 0%, a mortality at 0.02 ppm of 20% and a mortality at 0.04 ppm of 20%.
Take `CC(C)Oc1cccc(NC(=O)c2ccccc2C(F)(F)F)c1` [Flutolanil, flutolanil]: the mortality at 125 ppm in data set [2] (Myzus persicae, foliar, other pesticide alone 125 ppm) came out at 0%. Moreover, the mortality at 250 ppm in data set [2] (Myzus persicae, foliar, other pesticide alone 250 ppm) came out at 6%.
In data set [1] (setting [4]), `CCOP(=O)(SC(C)CC)N1CCSC1=O` (centres unmarked) [Fosthiazate, fosthiazate] came in with a mortality at 25 ppm of 88%.
On to `O=[N+]([O-])NC1=NCCN1Cc1ccc(Cl)nc1` [Imidacloprid, imidacloprid], for which, in data set [1] (setting [4]), the mortality at 12.5 ppm was determined as 20% and the mortality at 50 ppm was determined as 75%. The mortality at 0.05 ppm in data set [2] (Myzus persicae, foliar) stood at 60%. Further, in data set [2] (Myzus persicae, foliar, other pesticide alone 0.1 ppm), the mortality at 0.1 ppm was 67%.
For `CC(C)OC(=O)C(C(=O)OC(C)C)=C1SCCS1` [Isoprothiolane, isoprothiolane], the mortality at 200 ppm in data set [3] (Nephotettix cincticeps) came out at 50%.
`C[C@H]1O[C@H](O[C@H]2[C@H](O)[C@@H](O)[C@@H](O)[C@H](O)[C@@H]2O)[C@@H](N)C[C@@H]1NC(=N)C(=O)O` [Kasugamycin, kasugamycin]: in data set [2] (other pesticide alone 11.5 ppm), the “Mortality (%)” value was 0%.
Consider `O=C(NC(=O)c1c(F)cccc1F)Nc1cc(Cl)c(OC(F)(F)C(F)C(F)(F)F)cc1Cl` (centres unmarked) [Lufenuron, lufenuron], for which the mortality at 0.0125 ppm in data set [1] (setting [4]) came out at 70%.
As to `Cc1ccccc1C(=O)Nc1cccc(OC(C)C)c1` [Mepronil, mepronil], the mortality at 187.5 ppm in data set [3] (Nephotettix cincticeps) came out at 0%.
On to `O=C(Nc1ccccc1)N(Cc1ccc(Cl)cc1)C1CCCC1` [Pencycuron, pencycuron], for which the mortality at 125 ppm in data set [1] (setting [4]) came out at 0%.
In the case of `CC1(C)C(C=C(Cl)Cl)C1C(=O)OCc1cccc(Oc2ccccc2)c1` (centres unmarked) [Permethrin, permethrin], the mortality at 3.1 ppm in data set [1] (setting [4]) was 0%.
In data set [1] (setting [4]), `CC(C)=CC1C(C(=O)OCc2cccc(Oc3ccccc3)c2)C1(C)C` (centres unmarked) [Phenothrin, phenothrin] had a mortality at 12.5 ppm of 20% and a mortality at 25 ppm of 80%.
With `C#CCOS(=O)OC1CCCCC1Oc1ccc(C(C)(C)C)cc1` (centres unmarked) [Propargite, propargite], in data set [1] (setting [4]), the mortality at 50 ppm was 0%, the mortality at 100 ppm is 0% and the mortality at 200 ppm worked out at 0%.
In data set [1] (setting [4]), `CC(C)(C)c1ccc(CSc2cnn(C(C)(C)C)c(=O)c2Cl)cc1` [Pyridaben, pyridaben] gave a mortality at 100 ppm of 0% and a mortality at 200 ppm of 10%.
In data set [1] (setting [4]), `FC(F)(F)c1ccc(OCCCOc2c(Cl)cc(OCC=C(Cl)Cl)cc2Cl)nc1` [Pyridalyl, pyridalyl] gave a mortality at 0.4 ppm of 0% and a mortality at 1.5 ppm of 80%.
As for `CC(=O)N1C(=O)N(NCc2cccnc2)Cc2cc(C(F)(C(F)(F)F)C(F)(F)F)ccc21` [Pyrifluquinazon, pyrifluquinazon], the “Mortality (%)” value in data set [1] (other pesticide alone 25 ppm), in data set [1] (other pesticide alone 50 ppm) and in data set [1] (other pesticide alone 100 ppm) was 0% throughout.
In data set [1] (setting [4]), `O=C1CCc2cccc3c2N1CC3` [Pyroquilon, pyroquilon] came in with a mortality at 50 ppm of 0%, a mortality at 100 ppm of 0% and a mortality at 200 ppm of 0%.
`CCc1ccc(C(=O)NN(C(=O)c2cc(C)cc(C)c2)C(C)(C)C)cc1` [Tebufenozide, tebufenozide] had a mortality at 1.5 ppm in data set [1] (setting [4]) of 20%.
Turning to `N#C/N=C1\SCCN1Cc1ccc(Cl)nc1` [Thiacloprid, thiacloprid], the mortality at 50 ppm in data set [1] (setting [4]) was 67%.
In data set [1] (setting [4]), `Cc1ccc(NC(=O)c2snnc2C)cc1Cl` [Tiadinil, tiadinil] yielded a mortality at 50 ppm of 0%, a mortality at 100 ppm of 0% and a mortality at 200 ppm of 0%.
As to `Cc1cccc2sc3nncn3c12` [Tricyclazole, tricyclazole], in data set [2] (Myzus persicae, foliar), the mortality at 100 ppm turned out to be 13% and the mortality at 200 ppm amounted to 0%.
In data set [1] (setting [4]), `OCC1=C[C@H](N[C@H]2C[C@H](CO)[C@@H](O[C@@H]3O[C@H](CO)[C@@H](O)[C@H](O)[C@H]3O)[C@H](O)[C@H]2O)[C@H](O)[C@@H](O)[C@@H]1O` [Validamycin, validamycin] yielded a mortality at 25 ppm of 0% and a mortality at 50 ppm of 0%.
In data set [1] (setting [4]), `CC1(C)C(C=C(Cl)Cl)C1C(=O)OC(C#N)c1cccc(Oc2ccccc2)c1` (centres unmarked) [Zeta-cypermethrin, zeta-cypermethrin] gave a mortality at 0.4 ppm of 0%, a mortality at 0.8 ppm of 0% and a mortality at 1.5 ppm of 20%.
For the compound `CC(C)([CH2][Sn]([CH2]C(C)(C)c1ccccc1)([CH2]C(C)(C)c1ccccc1)[O][Sn]([CH2]C(C)(C)c1ccccc1)([CH2]C(C)(C)c1ccccc1)[CH2]C(C)(C)c1ccccc1)c1ccccc1` [fenbutatin oxide], the “Mortality (%)” value in data set [1] (other pesticide alone 200 ppm) turned out to be 0%.
For the compound emamectin-benzoate, the entries for the “Mortality (%)” value in data set [1] (other pesticide alone 0.0025 ppm), in data set [1] (other pesticide alone 0.005 ppm) and in data set [1] (other pesticide alone 0.01 ppm) were 0%, 10% and 30%, respectively.
As to spinosad, the entries for the “Mortality (%)” value in data set [1] (other pesticide alone 1.5 ppm), in data set [1] (other pesticide alone 3.1 ppm) and in data set [1] (other pesticide alone 6.2 ppm) were 20%, 60% and 60%, respectively.
